From patent publication US12617797B2, “Substituted pyrazolo [1,5-a]pyrimidines having multimodal activity against pain” (ESTEVE PHARMACEUTICALS, S.A., priority 2020, dated 2026)

Tests used:
Human σ1 receptor = biological target: T1, Human σ1 receptor (Homo sapiens, UniProt Q99720); assay: Human σ1 receptor radioligand assay ([3H](+)-pentazocine binding, transfected HEK-293 membranes); details: binding to σ1 receptor expressed as Ki; + also covers inhibition between 1% and 50%; read-out: σ-1 binding
T1 construct: expressed in transfected cells; host or cells: HEK-293
Protocol: Human σ1 Receptor Radioligand Assay
Transfected HEK-293 membranes (7 μg) were incubated with 5 nM of [^3H](+)-pentazocine in assay buffer containing Tris-HCl 50 mM at pH 8. NBS (non-specific binding) was measured by adding 10 μM haloperidol. The binding of the test compound was measured at either one concentration (% inhibition at 1 or 10 μM) or five different concentrations to determine affinity values (Ki). Plates were incubated at 37° C. for 120 minutes. After the incubation period, the reaction mix was then transferred to MultiScreen HTS, FC plates (Millipore), filtered and plates were washed 3 times with ice-cold 10 mM Tris-HCL (pH7.4). Filters were dried and counted at approximately 40% efficiency in a MicroBeta scintillation counter (Perkin-Elmer) using EcoScint liquid scintillation cocktail.

[1] = biological target: Human α2δ-1 subunit of Cav2.2 calcium channel (Homo sapiens, UniProt P54289); assay: Human α2δ-1 subunit of Cav2.2 calcium channel assay ([3H]-gabapentin binding); details: binding to the α2δ-1 subunit of voltage-gated calcium channels expressed as Ki; + also covers inhibition between 1% and 50%
Protocol: Biological Activity Pharmacological Study Human α2δ-1 Subunit of Cav2.2 Calcium Channel Assay
Human α2δ-1 enriched membranes (2.5 μg) were incubated with 15 nM of radiolabeled [^3H]-Gabapentin in assay buffer containing Hepes-KOH 10 mM, pH 7.4. NSB (non specific binding) was measured by adding 10 μM pregabalin. The binding of the test compound was measured at either one concentration (% inhibition at 1 or 10 μM) or five different concentrations to determine affinity values (Ki). After 60 min incubation at 27° C., binding reaction was terminated by filtering through Multiscreen GF/C (Millipore) presoaked in 0.5% polyethyleneimine in Vacuum Manifold Station, followed by 3 washes with ice-cold filtration buffer containing 50 mM Tris-HCl, pH 7.4. Filter plates were dried at 60° C. for 1 h and 30 μL of scintillation cocktail were added to each well before radioactivity reading. Readings were performed in a Trilux 1450 Microbeta radioactive counter (Perkin Elmer).

T1 sequence (Q99720 whole entry): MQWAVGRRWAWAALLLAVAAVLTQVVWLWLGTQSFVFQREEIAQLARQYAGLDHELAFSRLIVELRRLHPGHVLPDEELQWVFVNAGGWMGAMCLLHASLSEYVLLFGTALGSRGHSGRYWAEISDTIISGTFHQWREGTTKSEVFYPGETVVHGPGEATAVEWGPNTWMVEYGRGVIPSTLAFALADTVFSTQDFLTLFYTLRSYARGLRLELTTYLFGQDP
Human α2δ-1 subunit of Cav2.2 calcium channel, sequence (P54289 25-1103): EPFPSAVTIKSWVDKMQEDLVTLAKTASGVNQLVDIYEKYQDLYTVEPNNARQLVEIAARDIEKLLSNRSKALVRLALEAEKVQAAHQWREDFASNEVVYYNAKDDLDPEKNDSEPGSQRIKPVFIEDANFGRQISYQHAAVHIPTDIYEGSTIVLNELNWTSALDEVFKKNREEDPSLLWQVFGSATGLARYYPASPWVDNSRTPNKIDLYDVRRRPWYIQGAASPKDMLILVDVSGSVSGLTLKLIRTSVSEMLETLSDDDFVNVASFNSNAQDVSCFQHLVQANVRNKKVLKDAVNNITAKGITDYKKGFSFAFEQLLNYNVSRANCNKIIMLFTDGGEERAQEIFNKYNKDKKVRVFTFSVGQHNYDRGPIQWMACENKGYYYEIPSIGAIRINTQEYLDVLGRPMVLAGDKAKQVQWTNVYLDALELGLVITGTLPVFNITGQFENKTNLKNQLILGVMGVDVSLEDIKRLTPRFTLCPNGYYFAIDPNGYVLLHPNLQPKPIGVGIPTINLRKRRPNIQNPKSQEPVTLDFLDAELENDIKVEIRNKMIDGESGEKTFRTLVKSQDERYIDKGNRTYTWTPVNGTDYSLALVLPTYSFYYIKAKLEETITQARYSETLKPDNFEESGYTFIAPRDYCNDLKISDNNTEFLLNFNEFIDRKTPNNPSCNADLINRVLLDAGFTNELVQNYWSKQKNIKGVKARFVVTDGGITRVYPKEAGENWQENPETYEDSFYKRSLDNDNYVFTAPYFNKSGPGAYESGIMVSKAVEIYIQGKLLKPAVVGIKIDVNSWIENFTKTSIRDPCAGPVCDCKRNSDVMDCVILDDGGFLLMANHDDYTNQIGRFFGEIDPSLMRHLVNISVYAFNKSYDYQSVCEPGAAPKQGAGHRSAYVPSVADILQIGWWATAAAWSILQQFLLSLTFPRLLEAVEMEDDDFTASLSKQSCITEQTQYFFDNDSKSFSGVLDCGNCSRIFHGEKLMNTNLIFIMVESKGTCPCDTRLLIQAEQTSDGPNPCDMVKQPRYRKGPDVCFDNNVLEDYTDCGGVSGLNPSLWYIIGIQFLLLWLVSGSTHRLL

Question: `Cc1nn2c(C3CCCN(Cc4ccc(Cl)cc4)C3)ccnc2c1CNCC1CCOC1` (racemic) [Example 201, (+/−)-1-(7-((R/S)-1-(4-Chlorobenzyl)piperidin-3-yl)-2-methylpyrazolo[1,5-a]pyrimidin-3-yl)-N—(((S/R)-tetrahydrofuran-3-yl)methyl)methanamine] was tested. Which Ki (Human σ1 receptor) did it give?
Answer: < 500 nM

Question: And the Ki [1]?
Answer: > 5000 nM

Question: `Cc1nn2c([C@@H]3CCCN(Cc4ccc(Cl)cc4)C3)ccnc2c1CNC[C@@H]1CCOC(C)(C)C1` (racemic) [Example 221, (+/−)-1-(7-((R/S)-1-(4-Chlorobenzyl)piperidin-3-yl)-2-methylpyrazolo[1,5-a]pyrimidin-3-yl)-N—(((R/S)-2,2-dimethyltetrahydro-2H-pyran-4-yl)methyl)methanamine] was tested. Which Ki (Human σ1 receptor) did it give?
Answer: < 500 nM

Question: And the Ki [1]?
Answer: < 500 nM

Question: `Cc1nn2c([C@@H]3CCCN(Cc4ccc(Cl)cc4)C3)ccnc2c1CN[C@H](C)C1CCOCC1` (racemic) [Example 224, (+/−)-(R/S)—N-((7-((R/S)-1-(4-Chlorobenzyl)piperidin-3-yl)-2-methylpyrazolo[1,5-a]pyrimidin-3-yl)methyl)-1-(tetrahydro-2H-pyran-4-yl)ethan-1-amine] was tested. Which Ki (Human σ1 receptor) did it give?
Answer: < 500 nM

Question: What about the Ki [1] of the same compound?
Answer: 500 to 5000 nM

Question: Which results are given for `Brc1cc2nccc(C3CCCN(Cc4ccccc4)C3)n2n1` (stereo not shown) [Example 1, 7-(1-Benzylpiperidin-3-yl)-2-bromopyrazolo[1,5-a]pyrimidine]?
Answer: Ki (Human σ1 receptor): 500 to 1000 nM; Ki [1]: 500 to 5000 nM

Question: What does the source list for `c1ccc(CN2CCCC(c3ccnc4ccnn34)C2)cc1` (stereo not shown) [Example 2, 7-(1-Benzylpiperidin-3-yl)pyrazolo[1,5-a]pyrimidine]?
Answer: Ki (Human σ1 receptor): > 1000 nM; Ki [1]: 500 to 5000 nM

Question: With `Cc1cc2nccc(C3CCCN(Cc4ccccc4)C3)n2n1` (stereo not shown) [Example 3, 7-(1-Benzylpiperidin-3-yl)-2-methylpyrazolo[1,5-a]pyrimidine] as the compound, how does the Ki (Human σ1 receptor) read?
Answer: 500 to 1000 nM

Question: What about the Ki [1] of the same compound?
Answer: 500 to 5000 nM

Question: With `CCc1cc2nccc(C3CCCN(Cc4ccccc4)C3)n2n1` (stereo not shown) [Example 4, 7-(1-Benzylpiperidin-3-yl)-2-ethylpyrazolo[1,5-a]pyrimidine] as the compound, how does the Ki (Human σ1 receptor) read?
Answer: < 500 nM

Question: And the Ki [1]?
Answer: 500 to 5000 nM

Question: For `Brc1cnn2c(C3CCCN(Cc4ccccc4)C3)ccnc12` (stereo not shown) [Example 5, 7-(1-Benzylpiperidin-3-yl)-3-bromopyrazolo[1,5-a]pyrimidine], which Ki (Human σ1 receptor) is on record?
Answer: < 500 nM

Question: And the Ki [1]?
Answer: 500 to 5000 nM

Question: Which results are given for `Cc1cnc2c(Br)c(C)nn2c1C1CCCN(Cc2ccccc2)C1` (stereo not shown) [Example 6, 7-(1-Benzylpiperidin-3-yl)-3-bromo-2,6-dimethylpyrazolo[1,5-a]pyrimidine]?
Answer: Ki (Human σ1 receptor): > 1000 nM; Ki [1]: 500 to 5000 nM

Question: With `Cc1cnc2c(Br)cnn2c1C1CCCN(Cc2ccccc2)C1` (stereo not shown) [Example 7, 7-(1-Benzylpiperidin-3-yl)-3-bromo-6-methylpyrazolo[1,5-a]pyrimidine] as the compound, how does the Ki (Human σ1 receptor) read?
Answer: > 1000 nM

Question: And the Ki [1]?
Answer: > 5000 nM

Question: Which Ki (Human σ1 receptor) does the source give for `CC(=O)Nc1c(C)nn2c(C3CCCN(Cc4ccccc4)C3)ccnc12` (stereo not shown) [Example 8, N-(7-(1-Benzylpiperidin-3-yl)-2-methylpyrazolo[1,5-a]pyrimidin-3-yl)acetamide] here?
Answer: > 1000 nM

Question: And the Ki [1]?
Answer: > 5000 nM

Question: How did the Ki (Human σ1 receptor) turn out when `CC(=O)Nc1nn2c(C3CCCN(Cc4ccccc4)C3)ccnc2c1C` (stereo not shown) [Example 9, N-(7-(1-Benzylpiperidin-3-yl)-3-methylpyrazolo[1,5-a]pyrimidin-2-yl)acetamide] was run?
Answer: > 1000 nM

Question: And the Ki [1]?
Answer: > 5000 nM

Question: With `Cc1nn2c(C3CCCN(Cc4ccccc4)C3)ccnc2c1Br` (stereo not shown) [Example 10, 7-(1-Benzylpiperidin-3-yl)-3-bromo-2-methylpyrazolo[1,5-a]pyrimidine] as the compound, how does the Ki (Human σ1 receptor) read?
Answer: < 500 nM

Question: What about the Ki [1] of the same compound?
Answer: 500 to 5000 nM

Question: Which Ki (Human σ1 receptor) does the source give for `CCc1nn2c(C3CCCN(Cc4ccccc4)C3)ccnc2c1Br` (stereo not shown) [Example 11, 7-(1-Benzylpiperidin-3-yl)-3-bromo-2-ethylpyrazolo[1,5-a]pyrimidine] here?
Answer: < 500 nM

Question: And the Ki [1]?
Answer: 500 to 5000 nM

Question: How did the Ki (Human σ1 receptor) turn out when `c1ccc(CN2CCCC(c3ccnc4cc(-c5ccccc5)nn34)C2)cc1` (stereo not shown) [Example 12, 7-(1-Benzylpiperidin-3-yl)-2-phenylpyrazolo[1,5-a]pyrimidine] was run?
Answer: 500 to 1000 nM

Question: And the Ki [1]?
Answer: > 5000 nM

Question: With `CCOc1ccc(-c2cc3nccc(C4CCCN(Cc5ccccc5)C4)n3n2)cc1` (stereo not shown) [Example 13, 7-(1-Benzylpiperidin-3-yl)-2-(4-ethoxyphenyl)pyrazolo[1,5-a]pyrimidine] as the compound, how does the Ki (Human σ1 receptor) read?
Answer: > 1000 nM

Question: What about the Ki [1] of the same compound?
Answer: > 5000 nM

Question: Which Ki (Human σ1 receptor) does the source give for `Fc1ccccc1-c1cc2nccc(C3CCCN(Cc4ccccc4)C3)n2n1` (stereo not shown) [Example 14, 7-(1-Benzylpiperidin-3-yl)-2-(2-fluorophenyl)pyrazolo[1,5-a]pyrimidine] here?
Answer: 500 to 1000 nM

Question: What about the Ki [1] of the same compound?
Answer: 500 to 5000 nM

Question: For `Clc1ccc(-c2cc3nccc(C4CCCN(Cc5ccccc5)C4)n3n2)cc1` (stereo not shown) [Example 15, 7-(1-Benzylpiperidin-3-yl)-2-(4-chlorophenyl)pyrazolo[1,5-a]pyrimidine], which Ki (Human σ1 receptor) is on record?
Answer: > 1000 nM

Question: What about the Ki [1] of the same compound?
Answer: > 5000 nM

Question: With `c1ccc(CN2CCCC(c3ccnc4cc(-c5ccncc5)nn34)C2)cc1` (stereo not shown) [Example 16, 7-(1-Benzylpiperidin-3-yl)-2-(pyridin-4-yl)pyrazolo[1,5-a]pyrimidine] as the compound, how does the Ki (Human σ1 receptor) read?
Answer: > 1000 nM

Question: What about the Ki [1] of the same compound?
Answer: 500 to 5000 nM

Question: How did the Ki (Human σ1 receptor) turn out when `c1ccc(CN2CCCC(c3ccnc4cc(-c5cccnc5)nn34)C2)cc1` (stereo not shown) [Example 17, 7-(1-Benzylpiperidin-3-yl)-2-(pyridin-3-yl)pyrazolo[1,5-a]pyrimidine] was run?
Answer: 500 to 1000 nM

Question: What about the Ki [1] of the same compound?
Answer: 500 to 5000 nM

Question: With `Clc1cncc(Cl)c1-c1cc2nccc(C3CCCN(Cc4ccccc4)C3)n2n1` (stereo not shown) [Example 18, 7-(1-Benzylpiperidin-3-yl)-2-(3,5-dichloropyridin-4-yl)pyrazolo[1,5-a]pyrimidine] as the compound, how does the Ki (Human σ1 receptor) read?
Answer: 500 to 1000 nM

Question: What about the Ki [1] of the same compound?
Answer: 500 to 5000 nM

Question: How did the Ki (Human σ1 receptor) turn out when `c1ccc(CN2CCCC(c3ccnc4cc(-c5cccs5)nn34)C2)cc1` (stereo not shown) [Example 19, 7-(1-Benzylpiperidin-3-yl)-2-(thiophen-2-yl)pyrazolo[1,5-a]pyrimidine] was run?
Answer: > 1000 nM

Question: And the Ki [1]?
Answer: 500 to 5000 nM

Question: With `c1ccc(CN2CCCC(c3ccnc4cc(-c5cnsc5)nn34)C2)cc1` (stereo not shown) [Example 20, 4-(7-(1-Benzylpiperidin-3-yl)pyrazolo[1,5-a]pyrimidin-2-yl)isothiazole] as the compound, how does the Ki (Human σ1 receptor) read?
Answer: > 1000 nM

Question: And the Ki [1]?
Answer: 500 to 5000 nM

Question: For `Cn1cncc1-c1cc2nccc(C3CCCN(Cc4ccccc4)C3)n2n1` (stereo not shown) [Example 21, 7-(1-Benzylpiperidin-3-yl)-2-(1-methyl-1H-imidazol-5-yl)pyrazolo[1,5-a]pyrimidine], which Ki (Human σ1 receptor) is on record?
Answer: > 1000 nM

Question: What about the Ki [1] of the same compound?
Answer: 500 to 5000 nM

Question: `CN(C)c1ccc(-c2cc3nccc(C4CCCN(Cc5ccccc5)C4)n3n2)cc1` (stereo not shown) [Example 22, 4-(7-(1-Benzylpiperidin-3-yl)pyrazolo[1,5-a]pyrimidin-2-yl)-N,N-dimethylaniline] was tested. Which Ki (Human σ1 receptor) did it give?
Answer: > 1000 nM

Question: What about the Ki [1] of the same compound?
Answer: 500 to 5000 nM

Question: How did the Ki (Human σ1 receptor) turn out when `c1ccc(CN2CCCC(c3ccnc4cc(-c5cncnc5)nn34)C2)cc1` (stereo not shown) [Example 23, 7-(1-Benzylpiperidin-3-yl)-2-(pyrimidin-5-yl)pyrazolo[1,5-a]pyrimidine] was run?
Answer: > 1000 nM

Question: And the Ki [1]?
Answer: 500 to 5000 nM

Question: What does the source list for `Nc1ccc(-c2cc3nccc(C4CCCN(Cc5ccccc5)C4)n3n2)cn1` (stereo not shown) [Example 24, 5-(7-(1-Benzylpiperidin-3-yl)pyrazolo[1,5-a]pyrimidin-2-yl)pyridin-2-amine]?
Answer: Ki (Human σ1 receptor): > 1000 nM; Ki [1]: 500 to 5000 nM

Question: What does the source list for `Cn1cc(-c2cc3nccc(C4CCCN(Cc5ccccc5)C4)n3n2)cn1` (stereo not shown) [Example 25, 7-(1-Benzylpiperidin-3-yl)-2-(1-methyl-1H-pyrazol-4-yl)pyrazolo[1,5-a]pyrimidine]?
Answer: Ki (Human σ1 receptor): > 1000 nM; Ki [1]: > 5000 nM

Question: For `c1ccc(CN2CCCC(c3ccnc4cc(-c5ccccn5)nn34)C2)cc1` (stereo not shown) [Example 26, 7-(1-Benzylpiperidin-3-yl)-2-(pyridin-2-yl)pyrazolo[1,5-a]pyrimidine], which Ki (Human σ1 receptor) is on record?
Answer: > 1000 nM

Question: What about the Ki [1] of the same compound?
Answer: < 500 nM

Question: Which Ki (Human σ1 receptor) does the source give for `COc1ncccc1-c1cc2nccc(C3CCCN(Cc4ccccc4)C3)n2n1` (stereo not shown) [Example 27, 7-(1-Benzylpiperidin-3-yl)-2-(2-methoxypyridin-3-yl)pyrazolo[1,5-a]pyrimidine] here?
Answer: 500 to 1000 nM

Question: And the Ki [1]?
Answer: 500 to 5000 nM

Question: Which Ki (Human σ1 receptor) does the source give for `COc1ccc(-c2cc3nccc(C4CCCN(Cc5ccccc5)C4)n3n2)cn1` (stereo not shown) [Example 28, 7-(1-Benzylpiperidin-3-yl)-2-(6-methoxypyridin-3-yl)pyrazolo[1,5-a]pyrimidine] here?
Answer: > 1000 nM

Question: What about the Ki [1] of the same compound?
Answer: 500 to 5000 nM

Question: What does the source list for `COc1ccccc1-c1cc2nccc(C3CCCN(Cc4ccccc4)C3)n2n1` (stereo not shown) [Example 29, 7-(1-Benzylpiperidin-3-yl)-2-(2-methoxyphenyl)pyrazolo[1,5-a]pyrimidine]?
Answer: Ki (Human σ1 receptor): > 1000 nM; Ki [1]: 500 to 5000 nM

Question: `COc1cccc(-c2cc3nccc(C4CCCN(Cc5ccccc5)C4)n3n2)n1` (stereo not shown) [Example 30, 7-(1-Benzylpiperidin-3-yl)-2-(6-methoxypyridin-2-yl)pyrazolo[1,5-a]pyrimidine] was tested. Which Ki (Human σ1 receptor) did it give?
Answer: > 1000 nM

Question: What about the Ki [1] of the same compound?
Answer: > 5000 nM

Question: Which Ki [1] does the source give for `CC(=O)N1CCC(CNCc2c(Cl)nn3c([C@@H]4CCCN(Cc5ccccc5)C4)ccnc23)CC1` [Example 217, (R)-1-(4-((((7-(1-benzylpiperidin-3-yl)-2-chloropyrazolo[1,5-a]pyrimidin-3-yl)methyl)amino)methyl)piperidin-1-yl)ethan-1-one] here?
Answer: > 5000 nM
